Test results published in patent US20260241028A1, “METAL-BASED ANTIBODY-DRUG CONJUGATES AND METHODS OF MAKING AND USING THEREOF” (Laboratory for Synthetic Chemistry and Chemical Biology …, priority 2024, published 2026).
Where two headings read alike, the source gives them in different places.

How the values were obtained:
[1] = system: HT29; experiment: In vitro anti-proliferative activity (NBB assay), HT29; assay type: cell-based; details: Table 1; 72 h; read-out: IC50 HT29 colon
Method: (§1) Cells (4×10^3 cells/well) were seeded in a microtiter plate (96 wells) and incubated overnight before the treatment. […] After the media was removed, the cells were fixed with formaldehyde (3%; 50 μL) in PBS and stained with NBB reagent (0.05%, 0.1 M sodium acetate, 9% acetic acid; 50 μL) for overnight. The stained cells in each well were washed thrice gently with deionized water and solubilized in sodium hydroxide solution (50 mM; 100 μL). The cell viability was determined by measuring the absorbance of 620 nm in each well by microplate reader. The experiments were repeated in triplicate.

[2] = system: BxPC3; experiment: In vitro anti-proliferative activity (NBB assay), BxPC3; assay type: cell-based, human; details: 72 h
Method: as §1

[3] = system: SW1990; experiment: In vitro anti-proliferative activity (NBB assay), SW1990; assay type: cell-based, human; details: 72 h
Method: as §1

[4] = system: HCC827; experiment: In vitro anti-proliferative activity (NBB assay), HCC827; assay type: cell-based, human; details: 72 h
Method: as §1

[5] = system: PANC1; experiment: In vitro anti-proliferative activity (NBB assay), PANC1; assay type: cell-based; details: Table 1; 72 h; read-out: IC50 PANC1 pancreas
Method: as §1

[6] = system: NCI-H460; experiment: In vitro anti-proliferative activity (NBB assay), NCI-H460; assay type: cell-based; details: Table 1; 72 h; read-out: IC50 NCI-H460 lung
Method: as §1

[7] = system: A549; experiment: In vitro anti-proliferative activity (NBB assay), A549; assay type: cell-based; details: Table 1; 72 h; read-out: IC50 A549 lung
Method: as §1

[8] = system: HEK293; experiment: In vitro anti-proliferative activity (NBB assay), HEK293; assay type: cell-based, human; details: Table 1; 72 h; read-out: IC50 HEK293 kidney
Method: as §1

[9] = system: HCT116; experiment: In vitro anti-proliferative activity (NBB assay), HCT116; assay type: cell-based; details: Table 1; 72 h; read-out: IC50 HCT116 colon
Method: as §1

[10] = system: panel of cell lines; experiment: NBB assay, summary over the panel of cell lines; assay type: cell-based
Method: as §1

[11] = system: MDA-MB-231; experiment: In vitro anti-proliferative activity (NBB assay), MDA-MB-231; assay type: cell-based; details: Table 1; 72 h; read-out: IC50 MDA-MB-231 breast
Method: as §1

[12] = system: SKOV3; experiment: In vitro anti-proliferative activity (NBB assay), SKOV3; assay type: cell-based; details: Table 1; 72 h; read-out: IC50 SKOV3 ovarian
Method: as §1

[13] = system: NCI-N87; experiment: In vitro anti-proliferative activity (NBB assay), NCI-N87; assay type: cell-based; details: Table 1; 72 h; read-out: IC50 NCI-N87 gastric
Method: as §1

[14] = system: SKBR3; experiment: In vitro anti-proliferative activity (NBB assay), SKBR3; assay type: cell-based; details: 72 h
Method: as §1

[15] = system: Calu3; experiment: In vitro anti-proliferative activity (NBB assay), Calu3; assay type: cell-based, human; details: 72 h
Method: as §1

[16] = system: MHCC97L; experiment: In vitro anti-proliferative activity (NBB assay), MHCC97L; assay type: cell-based; details: Table 1; 72 h; read-out: IC50 MHCC97L liver
Method: as §1

[17] = system: TROP2-overexpressed cancer cells (HCC827, Calu3, BxPC3, SW1990, SKBR3); experiment: NBB assay, summary over TROP2-overexpressed cancer cells; assay type: cell-based; details: all the cells of Table 2
Method: as §1

[18] = system: TROP2-overexpressed cancer cells (HCC827, Calu3, BxPC3, SW1990); experiment: Flow cytometric binding study, TROP2-overexpressed cells; assay type: cell-based, human; details: flow cytometry, 4° C., 1 h
Method: Cells (2×10^5 cells/tube) were suspended in FACS staining buffer (2% FBS in PBS) into a 1.5 mL eppendorf tube. They were incubated with Sacituzumab, ADC-Au or IgG control respectively in staining buffer (100 μL) at 4° C. After 1 h, the cell suspensions were centrifuged at 1500 rpm for 3 min at 4° C. and washed with staining buffer (1 mL) twice to discard unbound antibodies. The cells were then incubated with Alexa Fluor 594 goat anti-human secondary antibody at 4° C. for 1 h and then subject to centrifugation. The cells were washed twice again and were resuspended in staining buffer. The mean fluorescence intensities (MFI) were measured using Beckman Cytoflex S Flow Cytometer.

[19] = Table 1, read-out: IC50 BxPC3 pancreas
[20] = Table 1, read-out: IC50 SW1990 pancreas
[21] = Table 1, read-out: IC50 HCC827 lung
[22] = Table 1, read-out: IC50 SKBR3 breast
[23] = Table 1, read-out: IC50 Calu3 lung

Row | Compound | IC50 [1] [nM] | IC50 [2, 19] [nM] | IC50 [3, 20] [nM] | IC50 [4, 21] [nM] | IC50 [5] [nM] | IC50 [6] [nM] | IC50 [7] [nM] | IC50 [8] [nM] | IC50 [9] [nM] | IC50 [11] [nM] | IC50 [12] [nM] | IC50 [13] [nM] | IC50 [14, 22] [nM] | IC50 [15, 23] [nM] | IC50 [16] [nM] | further results
1 | O=C(O)c1ccc(C2=c3ccc4[n]3[Au-]35[n]6c(ccc6C(c6ccccc6)=C6C=CC2=[N+]63)C(c2ccccc2)=C2C=CC(=[N+]25)C=4c2ccccc2)cc1.[Cl-] (centres unmarked) [AuCOOH] | 640 | 840 | 2190 | 1770 | 2430 | 420 | 690 | 650 | 710 | 710 | 2890 | 1310 | 270 | 1760 | 2650 | cytotoxicity / potency compared with the other gold complexes [10]: lowest cytotoxicity
2 | C1=CC2=[N+]3C1=C(c1ccccc1)c1ccc4[n]1[Au-]31[n]3c(ccc3=C(c3ccccc3)C3=[N+]1C(=C4c1ccccc1)C=C3)=C2c1ccccc1.Cl [AuTPP, gold (III) tetraphenylporphyrin, reference compound] | 120 | 80 | 170 | 140 | 100 | 120 | 90 | 130 | 150 | 180 | 90 | 100 | 80 | 290 | 150 | –
3 | Sacituzumab: TROP2-targeted monoclonal antibody (MCE) | – | – | – | – | – | – | – | – | – | – | – | – | – | – | – | IC50 ([2]; Table 2, Example 1 (Sacituzumab ADC), read-out: IC50 BxPC3): > 2000 nM; IC50 ([3]; Table 2, Example 1 (Sacituzumab ADC), read-out: IC50 SW1990): > 2000 nM; cell growth inhibition [17]: not obvious; IC50 ([4]; Table 2, Example 1 (Sacituzumab ADC), read-out: IC50 HCC827): > 2000 nM; IC50 ([14]; Table 2, Example 1 (Sacituzumab ADC), read-out: IC50 SKBR3): > 2000 nM; specific binding to TROP2-overexpressed cancer cells [18]: significant specific-binding; IC50 ([15]; Table 2, Example 1 (Sacituzumab ADC), read-out: IC50 Calu3): > 2000 nM
